Entries after “also recorded” stand apart in the source; their conditions may differ.
Columns and labels:
Format in all cases: cell-based, Streptococcus mutans
S. mutans UA159 = experiment: Biofilm growth CFU assay (fraction biofilm and total growth); conditions: for fractional biofilm formation (cells in biofilm relative to whole population), in words / overall (total) growth of the bacterial population / toxicity to S. mutans: 5 h, TH25% with 1% sucrose; for fractional biofilm formation (cells in biofilm relative to whole population), in words: 96-well polystyrene plate; for overall (total) growth of the bacterial population / toxicity to S. mutans: biofilm CFU per ml + supernatant CFU per ml
Experimental: The bacterial strain S. mutans UA159 (ATCC, 700610) was originally isolated from a child with active cavities. Bacteria were cultivated in Bacto Todd-Hewitt broth (TH; BD, 249240) or brain-heart infusion (BHI; BD, 237500) 1.5% agar plates at 37° C. with 5% CO2. To promote biofilm formation, S. mutans was grown in 25% TH supplemented with 1% sucrose.
(§1) Overnight cultures of S. mutans UA159 were inoculated from glycerol stocks and grown for 12-18 h in 50% TH at 37° C. with 5% CO2. Biofilms were prepared by diluting overnight cultures 1:20 into 50-100 μl of media (TH25% with 1% sucrose) and any polymer solution in a 96-well polystyrene plate for a starting inoculum of 10^7-10^8 CFU per ml. The cultures were then incubated statically for 5 hours at 37° C. with 5% CO2.
To measure total growth and relative biofilm formation, the number of cells in the biofilm and in suspension were counted using a colony forming unit (CFU) assay as previously described. See Werlang, C. A. et al., “Mucin O-glycans suppress quorum-sensing pathways and genetic transformation in Streptococcus mutans,” Nat. Microbiol. 1-10 (2021) doi: 10.1038/s41564-021-00876-1, which is incorporated herein in its entirety by reference for all purposes. Briefly, the supernatant was removed and transferred to a new 96-well plate, the biofilm was washed twice with 100 μl of phosphate-buffered saline (PBS), and the washes were added to the supernatant. The biofilm was then detached and resuspended in 100 μl of PBS by vigorously scraping with a pipette tip for 30 s. Each culture fraction was then serially diluted and plated on BHI agar. Colonies were counted after 24 h growth at 37° C. with 5% CO2. The fraction biofilm was calculated as (biofilm CFU per ml)/(biofilm CFU per ml+supernatant CFU per ml). The total growth was calculated as biofilm CFU per ml+supernatant CFU per ml. All of the conditions had at least three biological replicates (individual data points shown on graphs).

S. mutans biofilms [1] = experiment: Confocal microscopy of SYTO9-stained biofilms; conditions: SYTO9 stain
Experimental: For confocal microscopy, S. mutans biofilms were prepared as described above on 96-well glass-bottom plates with 5 nM of SYTO9 green fluorescent nucleic acid stain (ThermoFisher, S34854) added to the cultures. Cultures were imaged on a confocal laser-scanning microscope (LSM 800; Zeiss) with a 63×/1.4 NA oil immersion objective with a step size of 0.5 μm. The excitation wavelength for SYTO9 was 488 nm. At least three stacks were recorded for each well, and at least three independent wells were analyzed for each condition. Images were analyzed with Zeiss ZEN 2.1 imaging software (Thornwood, NY, USA).

S. mutans biofilms [2] = experiment: Total biofilm biomass by crystal violet staining; conditions: for total bacterial biomass incl. exopolysaccharides (crystal violet), in words: OD 580 nm
Experimental: as §1
Total biofilm biomass was measured using crystal violet staining. The supernatant was aspirated, and the biofilm was washed twice with 100 μl of PBS. Then 100 μl of 0.1% crystal violet was added to each well and incubated for 15 minutes at room temperature. The crystal violet solution was removed, and the stained biofilms were washed five times with 200 μl of distilled water. Finally, 100 μl of 30% acetic acid was added to each well to extract the absorbed crystal violet, and the OD was measured at 580 nm on a microtiter plate reader.

S. mutans = experiment: Polymer attachment assay (bacterial attachment to polymer coating); conditions: coatings from 2 mg per ml polymer on polystyrene, 1 hour at 37° C.
Experimental: Bacterial attachment to polymer coating was assayed as previously described. See Co, J. Y., Crouzier, T. & Ribbeck, K., “Probing the Role of Mucin-Bound Glycans in Bacterial Repulsion by Mucin Coatings,” Adv. Mater. Interfaces 2, 1500179 (2015), which is incorporated herein in its entirety by reference for all purposes. Briefly, coatings were prepared by incubating 100 μl of polymer solutions (2 mg per ml in Milli-Q purified water) on 96-well polystyrene plates for 2 h at 37° C., followed by three washes with 200 μl of sterile-filtered distilled water. Overnight cultures of S. mutans were centrifuged and resuspended in sterile PBS at an OD600 of 0.4, and 50 μl of the washed culture were added to each well. The bacteria were incubated on the coating for 1 hour at 37° C. To measure cell attachment, unattached bacteria were aspirated, wells were washed three times with 200 μl of PBS, and the remaining bacteria were detached with a pipette and resuspended in PBS before being quantified by a CFU assay.

Compound | fractional biofilm formation (cells in biofilm relative to whole population), in words (S. mutans UA159) | surface attachment / community structure by confocal microscopy (S. mutans biofilms [1]) | surface attachment / community structure by confocal microscopy (S. mutans biofilms [1]; listed as mucin) | biofilm fraction of culture (S. mutans UA159; 0.5% MUC5B mucin) | overall (total) growth of the bacterial population / toxicity to S. mutans (S. mutans UA159) | total bacterial biomass incl. exopolysaccharides (crystal violet), in words (S. mutans biofilms [2]) | reduction of biofilm biomass (S. mutans biofilms [2]; crystal violet staining) | S. mutans binding to polymer coating (S. mutans) | S. mutans binding to polymer coating (S. mutans; listed as MUC5B mucin)
CC(=O)N[C@H]1C(O)O[C@H](CO)[C@H](O)[C@@H]1O (stereo partly drawn) [Soluble GalNAc, N-acetyl galactosamine] | do not have a statistically significant impact | – | – | – | – | – | – | – | –
MUC5B: mucin purified by liquid chromatography from pooled human submandibular saliva | – | no longer attached to the surface | no longer attach to the surface | 30% | do not affect the overall growth | reduce the total bacterial biomass | 77% | do not strongly bind | did not bind
CC(=O)N[C@H]1[C@H]([C@H](O)[C@H](O)CO)OC(O)(C(=O)O)C[C@@H]1O (stereo partly drawn) [soluble NeuNAc, N-Acetylneuraminic acid] | small proportional reduction in the fraction of biofilm | – | – | – | toxic to S. mutans; also recorded: strong killing effect | reduction in total bacterial biomass | – | – | –
